In brackets after ≈: the same amount, converted by molar mass. Where two headings read alike, the source gives them in different places.
Assays:
[1] = Compound precipitation in uninoculated solubility controls (Example 4); format: physicochemical; set-up: key to precipitation observed (type): NA: not applicable (no precipitation observed); TRP: trace precipitate; DCP: distinct precipitate
Description: Un-inoculated solubility control plates for each test media and drug were incubated in parallel with test plates and observed for evidence of drug precipitation. MICs were read where visible growth of the organism was inhibited.

Escherichia coli = assay: Broth microdilution MIC, aerobic bacteria (Example 4); format: cell-based; settings: ATCC25922
Bifidobacterium bifidum = assay: Broth microdilution MIC, anaerobic bacteria (Example 4); format: cell-based; settings: isolate MMX 3965
Pseudomonas aeruginosa = assay: Broth microdilution MIC, aerobic bacteria (Example 4); format: cell-based
strains tested = assay: MIC/MBC testing, summary (Example 5); format: cell-based
Streptococcus pyogenes = assay: Broth microdilution MIC, aerobic bacteria (Example 4); format: cell-based
B. bifidum MMX 3965 = assay: MIC/MBC testing (Example 5); format: cell-based
S. aureus ATCC 29213 = assay: MIC/MBC testing (Example 5); format: cell-based
B. fragilis ATCC 25285 = assay: MIC/MBC testing (Example 5); format: cell-based; settings: Bacteroides fragilis, ATCC25285
[2] = tested on: Enterococcus faecalis (VRE); assay: microbe, parasite or virus in culture; format: cell-based
Clostridium difficile = assay: Broth microdilution MIC, anaerobic bacteria (Example 4); format: cell-based; settings: Clostridioides difficile
[3] = tested on: evaluated yeast and fungal isolates; assay: Broth microdilution MIC, summary (Example 4); format: cell-based
C. difficile = assay: MIC/MBC testing (Example 5); format: cell-based; settings: for MBC:MIC: ratios of 1-4 are indicative of bactericidal activity; for MBC / MIC: Clostridioides difficile
gram-negative aerobes = assay: Broth microdilution MIC, summary (Example 4); format: cell-based; settings: tested alone
E. faecalis ATCC 29212 = assay: MIC/MBC testing (Example 5); format: cell-based
E. faecalis MMX 848 = assay: MIC/MBC testing (Example 5); format: cell-based
Lactobacillus jensenii = assay: Broth microdilution MIC, anaerobic bacteria (Example 4); format: cell-based; settings: isolate MMX 4149
S. aureus MMX 757 = assay: MIC/MBC testing (Example 5); format: cell-based
Bacteroides fragilis = assay: Broth microdilution MIC, anaerobic bacteria (Example 4); format: cell-based; settings: ATCC25285, isolate MMX 123 (ATCC 25285)
Bifidobacterium longum = assay: as above; format: cell-based; settings: isolate MMX 3968
B. longum MMX 3968 = assay: MIC/MBC testing (Example 5); format: cell-based
[4] = tested on: Staphylococcus aureus (MRSA); assay: microbe, parasite or virus in culture; format: cell-based
[5] = tested on: Klebsiella pneumoniae (KPC-2); assay: microbe, parasite or virus in culture; format: cell-based
S. pneumoniae ATCC 49619 = assay: MIC/MBC testing (Example 5); format: cell-based; settings: Streptococcus pneumoniae, ATCC49619
[6] = tested on: Enterococcus faecalis (VSE); assay: Broth microdilution MIC, aerobic bacteria (Example 4); format: cell-based; settings: ATCC29212
[7] = tested on: Staphylococcus aureus (MSSA); assay: as above; format: cell-based; settings: ATCC 29213 / MSSA
Streptococcus pneumoniae = assay: as above; format: cell-based; settings: ATCC49619
Acinetobacter baumannii = assay: as above; format: cell-based
S. pyogenes MMX 404 = assay: MIC/MBC testing (Example 5); format: cell-based
Candida parapsilosis [8] = assay: Broth microdilution MIC, fungi (Example 4); format: cell-based; settings: for concentration at which 50% inhibition observed relative to the growth control: value in parenthesis; for MIC: Lodderomyces parapsilosis
Aspergillus fumigatus [9] = assay: Broth microdilution MIC, fungi (Example 4); format: cell-based; settings: Example 4, isolate MMX 5280 (MYA-3626); for MIC: Aspergillus fumigatus
E. coli ATCC 25922 = assay: MIC/MBC testing (Example 5); format: cell-based; settings: Escherichia coli, ATCC25922
Candida parapsilosis [10] = settings: ATCC 22019, Example 1 table, cited from earlier work
Aspergillus fumigatus [11] = assay: Broth microdilution MIC, yeast and fungi (Example 1); format: cell-based; settings: isolate MMX 5280 (ATCC MYA-3626)
Aspergillus fumigatus [12] = settings: MYA-3626; 48 hr; Example 4 table; cited from earlier work
Candida parapsilosis [13] = assay: Broth microdilution MIC, yeast and fungi (Example 1); format: cell-based; settings: Example 1, isolate MMX 2323 (ATCC 22019)
Candida parapsilosis [14] = settings: ATCC 22019, Example 4 table, cited from earlier work
Aspergillus fumigatus [15] = settings: ATCC MYA-3626; 48 hr; Example 1 table; cited from earlier work
[16] = Bifidobacterium bifidum, MMX3965
[17] = ratios of 1-4 are indicative of bactericidal activity
[18] = Staphylococcus aureus, ATCC29213
[19] = ATCC700057, Example 5, ATCC 700057
[20] = Enterococcus faecalis, ATCC29212
[21] = Bifidobacterium longum, MMX3968

Q: For `CCCCCc1cc(O)c2c(c1)OC(C)(C)[C@@H]1CCC(C)=C[C@@H]21` [THC, tetrahydrocannabinol], which “concentration at which precipitation was observed” value ([1]; Brucella Broth) is on record?
A: 128 µg/mL

Q: And the “precipitation observed (type)” value ([1]; Brucella Broth)?
A: DCP

Q: What about the “precipitation observed (type)” value ([1]; MHB II) of the same molecule?
A: DCP

Q: And the “precipitation observed (type)” value ([1]; MHB II with Blood)?
A: none

Q: What about the “precipitation observed (type)” value ([1]; RPMI) of the same molecule?
A: TRP

Q: What about the MIC (Escherichia coli) of the same molecule?
A: > 128 µg/mL

Q: And the MIC (Bifidobacterium bifidum)?
A: 16 µg/mL (≈ 50.9 µM)

Q: And the MIC (Pseudomonas aeruginosa)?
A: > 128 µg/mL

Q: What about the “biocidal activity against the strains tested” value (strains tested) of the same molecule?
A: overall biocidal

Q: What about the MIC (Streptococcus pyogenes) of the same molecule?
A: 16 µg/mL (≈ 50.9 µM)

Q: What about the MBC (B. bifidum MMX 3965; [16]) of the same molecule?
A: 128 µg/mL (≈ 407 µM)

Q: What about the MIC (B. bifidum MMX 3965; [16]) of the same molecule?
A: 32 µg/mL (≈ 102 µM)

Q: And the “MBC:MIC” value (B. bifidum MMX 3965; [17])?
A: 4

Q: What about the MBC (S. aureus ATCC 29213; [18]) of the same molecule?
A: 4 µg/mL (≈ 12.7 µM)

Q: And the MIC (S. aureus ATCC 29213; [18])?
A: 4 µg/mL (≈ 12.7 µM)

Q: And the “MBC:MIC” value (S. aureus ATCC 29213; [17])?
A: 1

Q: What about the MIC (B. fragilis ATCC 25285) of the same molecule?
A: > 256 µg/mL

Q: And the MIC [2]?
A: 2 µg/mL (≈ 6.36 µM)

Q: And the MIC (Clostridium difficile; ATCC700057, Example 4, isolate MMX 4381 (ATCC 700057))?
A: 32 µg/mL (≈ 102 µM)

Q: What about the MIC (Clostridium difficile; Example 4, isolate MMX 8330) of the same molecule?
A: 32 µg/mL (≈ 102 µM)

Q: And the MIC (Clostridium difficile; Example 4, isolate MMX 8333)?
A: 32 µg/mL (≈ 102 µM)

Q: What about the “activity against yeast and fungal isolates” value [3] of the same molecule?
A: Neither THC nor CBD were active

Q: And the “MBC:MIC” value (C. difficile; ATCC 700057)?
A: 2

Q: And the MBC (C. difficile; [19])?
A: 128 µg/mL (≈ 407 µM)

Q: What about the MIC (C. difficile; [19]) of the same molecule?
A: 64 µg/mL (≈ 204 µM)

Q: And the MBC (C. difficile; Example 5, MMX 8330)?
A: 64 µg/mL (≈ 204 µM)

Q: And the MIC (C. difficile; Example 5, MMX 8330)?
A: 64 µg/mL (≈ 204 µM)

Q: What about the MBC (C. difficile; Example 5, MMX 8333) of the same molecule?
A: 128 µg/mL (≈ 407 µM)

Q: And the MIC (C. difficile; Example 5, MMX 8333)?
A: 64 µg/mL (≈ 204 µM)

Q: And the “MBC:MIC” value (C. difficile; MMX 8330)?
A: 1

Q: And the “MBC:MIC” value (C. difficile; MMX 8333)?
A: 2

Q: And the “activity against Gram-negative aerobes” value (gram-negative aerobes)?
A: inactive

Q: What about the MBC (E. faecalis ATCC 29212; [20]) of the same molecule?
A: 8 µg/mL (≈ 25.4 µM)

Q: And the MIC (E. faecalis ATCC 29212; [20])?
A: 2 µg/mL (≈ 6.36 µM)

Q: And the “MBC:MIC” value (E. faecalis ATCC 29212; [17])?
A: 4

Q: What about the MBC (E. faecalis MMX 848; Enterococcus faecalis, MMX848) of the same molecule?
A: 4 µg/mL (≈ 12.7 µM)

Q: What about the MIC (E. faecalis MMX 848; Enterococcus faecalis, MMX848) of the same molecule?
A: 2 µg/mL (≈ 6.36 µM)

Q: What about the “MBC:MIC” value (E. faecalis MMX 848; [17]) of the same molecule?
A: 2

Q: And the MIC (Lactobacillus jensenii)?
A: 128 µg/mL (≈ 407 µM)

Q: What about the MBC (S. aureus MMX 757; Staphylococcus aureus, MMX757) of the same molecule?
A: 32 µg/mL (≈ 102 µM)

Q: What about the MIC (S. aureus MMX 757; Staphylococcus aureus, MMX757) of the same molecule?
A: 4 µg/mL (≈ 12.7 µM)

Q: What about the “MBC:MIC” value (S. aureus MMX 757; [17]) of the same molecule?
A: 8

Q: What about the MIC (Bacteroides fragilis) of the same molecule?
A: > 128 µg/mL

Q: And the MIC (Bifidobacterium longum)?
A: 32 µg/mL (≈ 102 µM)

Q: What about the MBC (B. longum MMX 3968; [21]) of the same molecule?
A: > 256 µg/mL

Q: What about the MIC (B. longum MMX 3968; [21]) of the same molecule?
A: 32 µg/mL (≈ 102 µM)

Q: What about the “MBC:MIC” value (B. longum MMX 3968; [17]) of the same molecule?
A: >8

Q: And the MIC [4]?
A: 2 µg/mL (≈ 6.36 µM)

Q: And the MIC [5]?
A: > 128 µg/mL

Q: What about the MIC (S. pneumoniae ATCC 49619) of the same molecule?
A: 1 µg/mL (≈ 3.18 µM)

Q: What about the MIC [6] of the same molecule?
A: 2 µg/mL (≈ 6.36 µM)

Q: And the MIC [7]?
A: 2 µg/mL (≈ 6.36 µM)

Q: And the MIC (Streptococcus pneumoniae)?
A: 1 µg/mL (≈ 3.18 µM)

Q: And the MIC (Acinetobacter baumannii)?
A: > 128 µg/mL

Q: And the MBC (S. pyogenes MMX 404; Streptococcus pyogenes, MMX404)?
A: 32 µg/mL (≈ 102 µM)

Q: And the MIC (S. pyogenes MMX 404; Streptococcus pyogenes, MMX404)?
A: 32 µg/mL (≈ 102 µM)

Q: What about the “MBC:MIC” value (S. pyogenes MMX 404; [17]) of the same molecule?
A: 1

Q: And the “concentration at which 50% inhibition observed relative to the growth control” value (Candida parapsilosis [8]; Example 4, 24 hr)?
A: 4 µg/mL

Q: And the “concentration at which 50% inhibition observed relative to the growth control” value (Candida parapsilosis [8]; Example 4, 48 hr)?
A: 4 µg/mL

Q: And the MIC (Candida parapsilosis [8]; ATCC22019, 24 h, read-out: MIC at 24 hr)?
A: > 128 µg/mL

Q: And the MIC (Candida parapsilosis [8]; ATCC22019, Example 4, 48 hr, isolate MMX 2323 (ATCC 22019), read-out: MIC at 48 hr)?
A: > 128 µg/mL

Q: What about the MIC (Aspergillus fumigatus [9]; 24 hr, read-out: MIC at 24 hr) of the same molecule?
A: > 128 µg/mL

Q: What about the MIC (Aspergillus fumigatus [9]; 48 hr, read-out: MIC at 48 hr) of the same molecule?
A: > 128 µg/mL

Q: What about the MIC (E. coli ATCC 25922) of the same molecule?
A: > 256 µg/mL

Q: With `C[C@@H]1[C@H](O)[C@@H](C)/C=C/C=C/C=C/C=C/C=C/C=C/C=C/[C@H](O[C@@H]2O[C@H](C)[C@@H](O)[C@H](N)[C@@H]2O)C[C@@H]2O[C@](O)(C[C@@H](O)C[C@@H](O)[C@H](O)CC[C@@H](O)C[C@@H](O)CC(=O)O[C@H]1C)C[C@H](O)[C@H]2C(=O)O` [Amphotericin B] as the molecule, how does the “CLSI QC range (MIC)” value (Candida parapsilosis [10]; 24 hr) read?
A: 0.5 to 2 µg/mL

Q: And the “CLSI QC range (MIC)” value (Candida parapsilosis [10]; 48 hr)?
A: 0.25 to 4 µg/mL

Q: And the “MIC at 24 hr” value (Aspergillus fumigatus [11]; 24 hr)?
A: 0.5, μg/mL

Q: And the “MIC at 48 hr” value (Aspergillus fumigatus [11]; 48 hr)?
A: 2 µg/mL (≈ 2.16 µM)

Q: What about the “CLSI QC range (MIC)” value (Aspergillus fumigatus [12]) of the same molecule?
A: (0.5-4)^3 μg/mL

Q: And the “MIC at 24 hr” value (Candida parapsilosis [13]; 24 hr)?
A: 0.5 µg/mL (≈ 0.541 µM)

Q: And the “MIC at 48 hr” value (Candida parapsilosis [13]; 48 hr)?
A: 1 µg/mL (≈ 1.08 µM)

Q: And the “CLSI QC range (MIC)” value (Candida parapsilosis [14]; 24 hr)?
A: (0.5-2)^3, μg/mL

Q: What about the “CLSI QC range (MIC)” value (Candida parapsilosis [14]; 48 hr) of the same molecule?
A: (0.25-4)^3 μg/mL

Q: And the “CLSI QC range (MIC)” value (Aspergillus fumigatus [15])?
A: 0.5 to 4 µg/mL

Q: And the “MIC at 24 hr” value (Candida parapsilosis [8]; Example 4, 24 hr, isolate MMX 2323 (ATCC 22019))?
A: 0.12 µg/mL (≈ 0.13 µM)

Q: And the “MIC at 48 hr” value (Candida parapsilosis [8]; Example 4, 48 hr, isolate MMX 2323 (ATCC 22019))?
A: 0.5 µg/mL (≈ 0.541 µM)

Q: And the “MIC at 24 hr” value (Aspergillus fumigatus [9]; 24 hr)?
A: 0.25 µg/mL (≈ 0.271 µM)

Q: And the “MIC at 48 hr” value (Aspergillus fumigatus [9]; 48 hr)?
A: 1 µg/mL (≈ 1.08 µM)
